{"source": "patent US4576951A", "about": "“Proglumide, pharmaceutical preparations and compositions including it for use in human pain relief” (priority 1983, dated 1986)", "key": {"[1]": {"test": "Hot plate test: potentiation of analgesic activity of opiates", "format": "in vivo, rats", "conditions": "proglumide 5 mg/kg s.c.", "description": "The method is that described by Eddy et al. (J. Pharmac. Exp. Therm. 107, 385 (1953)).\nGroups of five male rats having a weight of about 150 g and which have not been fasting are used.\nThe animals are placed on a metal plate which is on the bottom of a transparent cylinder heated to 55°±1° C. by an azeotropic boiling mixture (1:1 acetone-ethyl formate). The time which passes between the moment at which the animal is placed on the hot plate and the moment at which it licks its feet or tries to jump out of the cylinder is defined as the reaction time. The control reaction time is measured 10 and 5 minutes before the administration of the drugs and 10, 20, 30, 45, 60, 90 minutes afterwards. The animals are left on the plate for a maximum period of 30 seconds. The response to the administration of the product is considered positive if at least a doubling of the normal reaction time is seen. The results obtained are given in Table 2 which records the groups treated, the doses administered and the stay times on the plate expressed as the number of positive responses over the number treated."}, "in vivo": {"test": "in vivo", "conditions": "mouse, sc", "description": "The drug (or drugs) under examination was administered sub-cutaneously. The animals were kept under observation for 15 days after the administration.\nTen animals were used for each dose."}, "[2]": {"test": "Tail Flick Test after transcutaneous shock: analgesic activity of endogenous opiates", "format": "in vivo, rats", "description": "Influence of proglumide on the analgesic activity of endogenous opiates released under transcutaneous shock in rats measured by the Tail Flick Test The method is that described by Lewis et al. (J. Naurosc. 1, 358 (1981)). Male rats having a weight of about 200 g, which have not been fasting, are used. The animals are stressed by the application to the front leg of a 60 Hz-2.5 mA current in pulses of a duration of one second every five seconds for 20 minutes. This stress regime causes the release of endogenous opiates."}, "[3]": {"test": "Potentiation of analgesic effect of enkephalinamide (DALA) i.c.v. (Tail Flick test)", "format": "in vivo, rats", "description": "Potentiation of the analgesic activities of enkephalins induced by proglumide\nIn order to check one of the possible mechanisms for the action of proglumide, that is its possible inhibition of the enzymatic degradation of endogenous enkephalins, the following experiment was carried out:\nA cannula was implanted in the right lateral ventricle of male rats having a weight of 150-200 g (groups of five animals were used) in order to allow the intracerebroventricular (I.C.V.) administration of drugs according to the method of Noble et al (Life Science 6, (1970) 281-291). […]"}, "[4]": {"format": "in vivo, rats", "description": "The method is that described by Harris et al. (J. Pharmcol. Exp. Ther. 143 (1964) 141-148).\nMale rats are used which have a weight of about 150-200 g and which have not been fasting. A point is chosen on the tail and this is irradiated by a heat source (75° C.) and the time (in seconds) for which the animal remains without moving its tail is measured.\nA maximum period of time under the heat source of 8 seconds is chosen after which the animal is, in any case, removed in order to avoid tissue damage. The measurement is effected before (controls) and after treatment with the drugs. […] The percentage variation is calculated for each individual animal by the following formula: [formula] (time measurements are in seconds)\nThe measurements are carried out 10, 20, 30, 45, 60 and 90 minutes after treatment with the analgesics."}, "[5]": {"format": "in vivo, rats", "description": "Activity of proglumide as an antagonist to the tolerance induced by opiates\nGroups of five male rats having a weight of about 200-250 g were used.\nThe determination of the pain threshold was effected 1, 3, 6, 9 and 12 hours after the first treatment by the Tail Flick test.\nThe data given in Table 5 indicate the percentage variations in the latency (appearance of pain) before and after treatment with the drugs.", "remark": "listed apart in the source"}, "[6]": {"conditions": "1 min, proglumide 20 mg/kg, no stress"}, "[7]": {"conditions": "1 min, stress + proglumide 1 mg/kg"}, "[8]": {"conditions": "1 min, stress + proglumide 5 mg/kg"}, "[9]": {"conditions": "1 min, stress + proglumide 20 mg/kg"}, "[10]": {"conditions": "5 min, proglumide 20 mg/kg, no stress"}, "[11]": {"conditions": "5 min, stress + proglumide 1 mg/kg"}, "[12]": {"conditions": "5 min, stress + proglumide 5 mg/kg"}, "[13]": {"conditions": "5 min, stress + proglumide 20 mg/kg"}, "[14]": {"conditions": "10 min, proglumide 20 mg/kg, no stress"}, "[15]": {"conditions": "10 min, stress + proglumide 1 mg/kg"}, "[16]": {"conditions": "10 min, stress + proglumide 5 mg/kg"}, "[17]": {"conditions": "10 min, stress + proglumide 20 mg/kg"}, "[18]": {"conditions": "15 min, proglumide 20 mg/kg, no stress"}, "[19]": {"conditions": "15 min, stress + proglumide 1 mg/kg"}, "[20]": {"conditions": "15 min, stress + proglumide 5 mg/kg"}, "[21]": {"conditions": "15 min, stress + proglumide 20 mg/kg"}}, "note": "Like-named read-outs stand apart in the source and are kept apart here.", "data": [{"smiles": "CCCN(CCC)C(=O)C(CCC(=O)O)NC(=O)c1ccccc1", "note": "(racemic) [Proglumide, D,L-4-benzamido-N, N-dipropylglutaramic acid]", "values": [{"measurement": "increase of the analgesic effect of morphine and methadone", "setting": "[1]", "value": "at least double"}, {"measurement": "LD50 at 360 h", "setting": "in vivo", "value": "> 5000", "unit": "mg/kg"}, {"measurement": "Average latency (tail flick)", "setting": "[2]; [6]", "value": "3.66 ± 0.25", "unit": "s"}, {"measurement": "t (vs control stress)", "setting": "[2]; [6]", "value": 6.90}, {"measurement": "t (vs control)", "setting": "[2]; [6]", "value": 0.37}, {"measurement": "t (vs control stress)", "setting": "[2]; [7]", "value": 0.92}, {"measurement": "t (vs control)", "setting": "[2]; [7]", "value": 5.21}, {"measurement": "t (vs control stress)", "setting": "[2]; [8]", "value": 0.87}, {"measurement": "t (vs control)", "setting": "[2]; [8]", "value": 4.25}, {"measurement": "t (vs control stress)", "setting": "[2]; [9]", "value": 6.14}, {"measurement": "t (vs control)", "setting": "[2]; [9]", "value": 9.54}, {"measurement": "Average latency (tail flick)", "setting": "[2]; 1 min after shock, stress + proglumide 1 mg/kg", "value": "6.37 ± 0.45", "unit": "s"}, {"measurement": "Average latency (tail flick)", "setting": "[2]; 1 min after shock, stress + proglumide 5 mg/kg", "value": "6.33 ± 0.57", "unit": "s"}, {"measurement": "Average latency (tail flick)", "setting": "[2]; 1 min after shock, stress + proglumide 20 mg/kg", "value": "13.59 ± 1.0", "unit": "s"}, {"measurement": "Average latency (tail flick)", "setting": "[2]; [10]", "value": "3.59 ± 0.20", "unit": "s"}, {"measurement": "t (vs control stress)", "setting": "[2]; [10]", "value": 5.88}, {"measurement": "t (vs control)", "setting": "[2]; [10]", "value": 1.36}, {"measurement": "t (vs control stress)", "setting": "[2]; [11]", "value": 0.69}, {"measurement": "t (vs control)", "setting": "[2]; [11]", "value": 5.18}, {"measurement": "t (vs control stress)", "setting": "[2]; [12]", "value": 2.74}, {"measurement": "t (vs control)", "setting": "[2]; [12]", "value": 5.62}, {"measurement": "t (vs control stress)", "setting": "[2]; [13]", "value": 3.90}, {"measurement": "t (vs control)", "setting": "[2]; [13]", "value": 7.29}, {"measurement": "Average latency (tail flick)", "setting": "[2]; 5 min after shock, stress + proglumide 1 mg/kg", "value": "6.55 ± 0.43", "unit": "s"}, {"measurement": "Average latency (tail flick)", "setting": "[2]; 5 min after shock, stress + proglumide 5 mg/kg", "value": "8.5 ± 0.76", "unit": "s"}, {"measurement": "Average latency (tail flick)", "setting": "[2]; 5 min after shock, stress + proglumide 20 mg/kg", "value": "9.16 ± 0.67", "unit": "s"}, {"measurement": "Average latency (tail flick)", "setting": "[2]; [14]", "value": "3.57 ± 0.16", "unit": "s"}, {"measurement": "t (vs control stress)", "setting": "[2]; [14]", "value": 2.57}, {"measurement": "t (vs control)", "setting": "[2]; [14]", "value": 0.12}, {"measurement": "t (vs control stress)", "setting": "[2]; [15]", "value": 0.86}, {"measurement": "t (vs control)", "setting": "[2]; [15]", "value": 1.83}, {"measurement": "t (vs control stress)", "setting": "[2]; [16]", "value": 0.72}, {"measurement": "t (vs control)", "setting": "[2]; [16]", "value": 2.98}, {"measurement": "t (vs control stress)", "setting": "[2]; [17]", "value": 5.01}, {"measurement": "t (vs control)", "setting": "[2]; [17]", "value": 7.02}, {"measurement": "Average latency (tail flick)", "setting": "[2]; 10 min after shock, stress + proglumide 1 mg/kg", "value": "4.07 ± 0.22", "unit": "s"}, {"measurement": "Average latency (tail flick)", "setting": "[2]; 10 min after shock, stress + proglumide 5 mg/kg", "value": "4.66 ± 0.32", "unit": "s"}, {"measurement": "Average latency (tail flick)", "setting": "[2]; 10 min after shock, stress + proglumide 20 mg/kg", "value": "6.94 ± 0.44", "unit": "s"}, {"measurement": "Average latency (tail flick)", "setting": "[2]; [18]", "value": "3.57 ± 0.15", "unit": "s"}, {"measurement": "t (vs control stress)", "setting": "[2]; [18]", "value": 0.04}, {"measurement": "t (vs control)", "setting": "[2]; [18]", "value": 1.49}, {"measurement": "t (vs control stress)", "setting": "[2]; [19]", "value": 0.43}, {"measurement": "t (vs control)", "setting": "[2]; [19]", "value": 0.82}, {"measurement": "t (vs control stress)", "setting": "[2]; [20]", "value": 0.98}, {"measurement": "t (vs control)", "setting": "[2]; [20]", "value": 0.11}, {"measurement": "t (vs control stress)", "setting": "[2]; [21]", "value": 3.34}, {"measurement": "t (vs control)", "setting": "[2]; [21]", "value": 2.89}, {"measurement": "Average latency (tail flick)", "setting": "[2]; 15 min after shock, stress + proglumide 1 mg/kg", "value": "3.68 ± 0.16", "unit": "s"}, {"measurement": "Average latency (tail flick)", "setting": "[2]; 15 min after shock, stress + proglumide 5 mg/kg", "value": "3.81 ± 0.16", "unit": "s"}, {"measurement": "Average latency (tail flick)", "setting": "[2]; 15 min after shock, stress + proglumide 20 mg/kg", "value": "4.78 ± 0.32", "unit": "s"}, {"measurement": "effect on the analgesic effect of endogenous enkephalins", "setting": "[2]; proglumide 5 mg/kg", "value": "can increase (in one case significantly)"}, {"measurement": "effect on the analgesic effect of endogenous enkephalins", "setting": "[2]; proglumide 20 mg/kg", "value": "significantly more marked both in intensity and duration"}, {"measurement": "% variation in the latency to pain", "setting": "[3]; 5 min, alone i.c.v.: proglumide 1 or DALA 10 μg/kg", "value": "18.06 ± 10.8", "unit": "%"}, {"measurement": "% variation in the latency to pain", "setting": "[3]; 15 min, alone i.c.v.: proglumide 1 or DALA 10 μg/kg", "value": "2.18 ± 10.6", "unit": "%"}, {"measurement": "% variation in the latency to pain", "setting": "[3]; 30 min, alone i.c.v.: proglumide 1 or DALA 10 μg/kg", "value": "18.36 ± 5.9", "unit": "%"}, {"measurement": "% variation in the latency to pain", "setting": "[3]; 45 min, alone i.c.v.: proglumide 1 or DALA 10 μg/kg", "value": "-10.94 ± 14.5", "unit": "%"}, {"measurement": "% variation in the latency to pain", "setting": "[3]; 60 min, alone i.c.v.: proglumide 1 or DALA 10 μg/kg", "value": "-5.58 ± 8.1", "unit": "%"}, {"measurement": "% variation in the latency to pain", "setting": "[3]; 90 min, alone i.c.v.: proglumide 1 or DALA 10 μg/kg", "value": "13.3 ± 8.4", "unit": "%"}, {"measurement": "Average (0 → 90) % variation in the latency to pain", "setting": "[3]; alone i.c.v.: proglumide 1 or DALA 10 μg/kg", "value": "5.9 ± 5.12", "unit": "%"}, {"measurement": "action on the analgesic effect of the enkephalinamide (DALA)", "setting": "[3]; i.c.v.", "value": "potentiating action of proglumide on the analgesic effect of the enkephalinamide (DALA) both in intensity and duration"}, {"measurement": "significance of potentiating action on DALA analgesia", "setting": "[3]; proglumide 1 μg/kg", "value": "highly significant"}, {"measurement": "ED50 for potentiation of the analgesic effect (proglumide increasing effect by 50%)", "setting": "[4]; rat, in vivo, ip", "value": 4.15, "unit": "mg/kg"}, {"measurement": "ED50 for potentiation of the analgesic effect (proglumide increasing effect by 50%)", "setting": "[4]; strengthening of propoxyphene", "value": 2.26, "unit": "mg/kg"}, {"measurement": "antagonism of development of tolerance", "setting": "[5]; proglumide 20 mg/kg", "value": "highly significant"}, {"measurement": "effect on development of tolerance induced by morphine", "setting": "[5]; rat, in vivo, ip", "value": "opposes the development of tolerance"}]}]}
